pIC50: −log10 of the molar value.
Columns and labels:
[1] = molecular target: 11-beta-hydroxysteroid dehydrogenase 1 (Mus musculus, UniProt P50172); assay: Inhibition of mouse 11beta-HSD1
[2] = molecular target: T1, 11-beta-hydroxysteroid dehydrogenase type 2 (Mus musculus) (UniProt P51661); assay: Inhibition of mouse 11beta-HSD2 at 10 uM
T1 sequence (whole entry): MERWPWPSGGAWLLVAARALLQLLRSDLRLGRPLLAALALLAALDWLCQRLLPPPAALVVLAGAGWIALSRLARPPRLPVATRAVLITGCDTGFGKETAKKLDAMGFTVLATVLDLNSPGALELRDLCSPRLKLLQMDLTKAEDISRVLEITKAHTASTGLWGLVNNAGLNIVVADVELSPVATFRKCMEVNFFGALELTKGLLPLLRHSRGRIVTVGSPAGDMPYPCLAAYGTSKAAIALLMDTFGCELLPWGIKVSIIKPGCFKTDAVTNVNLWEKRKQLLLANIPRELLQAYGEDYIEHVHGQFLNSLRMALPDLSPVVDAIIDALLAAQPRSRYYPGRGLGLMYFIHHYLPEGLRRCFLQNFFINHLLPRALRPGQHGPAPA

[3] = molecular target: 11-beta-hydroxysteroid dehydrogenase 1 (Mus musculus) (UniProt P50172); assay: Inhibition of mouse 11beta-HSD1 at 10 uM
11-beta-hydroxysteroid dehydrogenase 1 (Mus musculus), sequence (P50172 whole entry, looked up): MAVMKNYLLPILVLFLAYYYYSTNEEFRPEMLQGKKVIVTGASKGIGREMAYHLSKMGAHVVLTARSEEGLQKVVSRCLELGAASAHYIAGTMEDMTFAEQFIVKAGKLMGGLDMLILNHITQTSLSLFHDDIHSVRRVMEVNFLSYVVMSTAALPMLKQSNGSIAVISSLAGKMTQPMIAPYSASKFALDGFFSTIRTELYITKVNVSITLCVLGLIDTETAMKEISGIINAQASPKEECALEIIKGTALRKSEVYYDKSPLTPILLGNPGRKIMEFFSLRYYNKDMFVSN

11-beta-hydroxysteroid dehydrogenase 1, sequence (P50172 whole entry): as the sequence (P50172 whole entry, looked up) above

O=C(CSc1nc2ccc(NC(=O)c3ccccc3Br)cc2s1)NCCc1ccccc1
pIC50 [1]: 5.68
inhibition [2]: 0%

O=C(CN1C(=O)C2C3c4ccccc4C(c4ccccc43)C2C1=O)Nc1cccc(Cl)c1 (configuration not stated)
pIC50 [1]: 4.90
inhibition [2]: 2.2%

Cc1ccc(C(=O)COC(=O)C(Cc2ccccc2)N2C(=O)c3ccccc3C2=O)cc1 (configuration not stated)
inhibition [3]: 60%
inhibition [2]: 3.4%

Cc1ccc(S(=O)(=O)N(CC(=O)N2CCCCCC2)c2cc(Cl)ccc2C)cc1
pIC50 [1]: 5.21
inhibition [2]: 0.8%

CC(C)COC(=O)c1ccc(NC(=O)c2ccc3c(c2)-c2ccccc2C3=O)cc1
pIC50 [1]: 5.44
inhibition [2]: 3.7%

Cc1cc(NS(=O)(=O)c2ccc(NC(=O)c3ccc(C(=O)C(=O)c4ccccc4)cc3)cc2)nc(C)n1
pIC50 [1]: 6.32
inhibition [2]: 9.1%

— ChEMBL document CHEMBL1141619, “Discovery of novel inhibitors of 11beta-hydroxysteroid dehydrogenase type 1 by docking and pharmacophore modeling” (Bioorg Med Chem Lett, 2008)
